Reference: patent publication US20060104978A1, “Methods and compositions for PDGF-C activation and inhibition” (LUDWIG INSTITUTE FOR CANCER RESEARCH, priority 2003, published 2006)

Tests used:
[1] = tested on: secreted protease(s) present in the conditioned media from AG1523 cells; test: In vitro cleavage of recombinant latent PDGF-CC by AG1523 conditioned medium, protease inhibitor profile; assay type: biochemical, human; conditions: inhibitor preincubated 30 min with AG1523 medium, then recombinant PDGF-CC 37° C. overnight; AEBSF 1 mM, leupeptin 100 μM, aprotinin 100 μM; immunoblot
Procedure: In an in vitro assay, the properties of the enzyme(s) involved in cleavage and activation of PDGF-CC were studied by mixing serum-free conditioned media from AG1523 cells with His6-tagged recombinant full-length PDGF-CC.
The class of enzyme(s) responsible for cleavage and activation of latent PDGF-CC was established by generating an enzyme inhibitor profile of the enzymatic activity (FIG. 1E). Eight different protease inhibitors (see FIG. 1F) were separately preincubated with conditioned media from AG1523 cells, and then incubated with His6-tagged recombinant full-length PDGF-CC.
(§1) All protease inhibitors were purchased from Sigma and the concentrations used were as follows: AEBSF 1 mM, bestatin 100 μM, leupeptin 100 μM, pepstatin A 10 μM, E64 100 μM, aprotinin 100 μM (˜3 TIU), EDTA 50 mM, and phosphoramidon 100 μM. The protease inhibitors were preincubated with conditioned AG1523 medium at room temperature for 30 min, and then incubated with recombinant PDGF-CC (ratio 10:2) at 37° C. overnight. Recombinant PDGF-CC species were analyzed by immunoblotting as above. To determine whether tPA is the major proteolytic enzyme responsible for the PDGF-CC processing in AG1523 conditioned medium, AG1523 cells were cultured in serum-free medium, with or without the addition of a synthetic tPA inhibitor tPA-STOP™ (3.5-35 μM, #544, American Diagnostica Inc.) or 100 μM aprotinin as a positive control. The conditioned serum-free medium was collected, and proteins were precipitated before SDS-PAGE and immunoblotting using antibodies against PDGF-C (see above).

[2] = tested on: tPA; test: Processing of endogenous PDGF-CC by growing AG1523 cells with tPA inhibitors in serum-free medium; assay type: cell-based, human; conditions: tPA-STOP 3.5-35 μM, aprotinin 100 μM in serum-free medium of AG1523 cells; immunoblot
Procedure: as §1

[3] = tested on: tPA; test: Ni-NTA pull-down of purified tPA by His6-tagged recombinant proteins; assay type: binding, human; conditions: Ni-NTA beads coated with His6-tagged protein, 1 μg purified tPA, 2 hours room temperature, eluted with imidazole
Procedure: The possibility of a direct protein-protein interaction between tPA and latent PDGF-CC was explored by developing a pull-down assay. Ni-NTA beads were allowed to bind recombinant His6-tagged latent PDGF-CC or PDGF-DD, and purified tPA was added and incubated. Following extensive washings, bound proteins were subsequently eluted with an imidazole-containing buffer, and the eluates were analyzed by immunoblotting using specific antibodies.
To determine a direct protein-protein interaction between tPA and PDGF-CC, His6-tagged recombinant protein species were bound to Ni-NTA-agarose (Qiagen) and then incubated with 1 μg of purified tPA for 2 hours at room temperature. Uncoated and PDGF-DD coated Ni-NTA beads were used as controls. The beads were washed thoroughly, and His6-tagged proteins were specifically eluted with 400 mM imidazole. Eluted proteins were analyzed by SDS-PAGE under reducing conditions and immunoblotted with antibodies against human tPA (see above). The membranes were subsequently stripped and reprobed with specific antibodies.
Target sequence in this assay (P00750 36-562): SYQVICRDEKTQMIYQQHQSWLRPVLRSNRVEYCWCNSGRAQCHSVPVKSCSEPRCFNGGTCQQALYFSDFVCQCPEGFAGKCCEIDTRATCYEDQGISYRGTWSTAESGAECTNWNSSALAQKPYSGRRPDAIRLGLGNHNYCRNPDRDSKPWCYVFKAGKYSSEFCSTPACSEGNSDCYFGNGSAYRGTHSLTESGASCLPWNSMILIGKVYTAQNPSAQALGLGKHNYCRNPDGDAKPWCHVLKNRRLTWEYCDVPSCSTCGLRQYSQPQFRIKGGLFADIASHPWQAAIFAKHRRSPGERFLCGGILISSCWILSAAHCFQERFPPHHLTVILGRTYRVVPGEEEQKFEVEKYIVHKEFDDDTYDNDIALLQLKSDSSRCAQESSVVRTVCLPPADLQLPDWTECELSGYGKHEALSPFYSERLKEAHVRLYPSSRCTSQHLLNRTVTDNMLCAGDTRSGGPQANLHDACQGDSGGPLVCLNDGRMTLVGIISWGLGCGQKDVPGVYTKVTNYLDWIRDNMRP

| Compound | inhibition of proteolytic cleavage of latent PDGF-CC [1] | inhibition of processing of endogenous full-length PDGF-CC [2] | binding of tPA in pull-down [3] |
| --- | --- | --- | --- |
| NCCc1ccc(S(=O)(=O)F)cc1 [AEBSF] | inhibited the proteolytic cleavage of latent PDGF-CC | – | – |
| CC(=O)N[C@@H](CC(C)C)C(=O)N[C@@H](CC(C)C)C(=O)N[C@H](C=O)CCCNC(=N)N [leupeptin] | inhibited the proteolytic cleavage of latent PDGF-CC | – | – |
| Cl.Cl.N=C(N)c1ccc(C=C2CCCCC(=Cc3ccc(C(=N)N)cc3)C2=O)cc1 [tPA-STOP™] | – | in a dose-dependent way, prevented processing of full-length PDGF-CC | – |
| PDGF-DD: recombinant His6-tagged latent full-length PDGF-DD | – | – | failed to do so |
| aprotinin | inhibited the proteolytic cleavage of latent PDGF-CC | efficiently inhibited processing of latent PDGF-CC | – |
